Source: patent US12264185B2, “Stabilized BCL9 peptides for treatment of aberrant Wnt signaling” (WntRx Pharmaceuticals Inc., priority 2015, dated 2025)
Several values for one entry are separate records, joined by “and”; a condition that tells them apart may be missing. Equal entries are not always repeated. Each block holds one compound with its values, some of them ahead of it. Bridge positions count the residues as written; N and C are the ends. Square brackets hold non-standard residues; d marks the D form. Peptide text beside a SMILES is read from it. 2Nal = N[C@@H](Cc1ccc2ccccc2c1)C(=O)O; R5 = C=CCCC[C@@](C)(N)C(=O)O; S5 = C=CCCC[C@](C)(N)C(=O)O; βAla = NCCC(=O)O

Experiments:
[1] = Toxicity study of WX-035 in balb/c nude mice (H&E of major organs); format: in vivo; conditions: 30 mg/kg or 40 mg/kg i.v., 7 consecutive days
Protocol: To assess the toxicity effect of WX-035, balb/c nude mice were administered with a vehicle, or 30 mg/kg, or 40 mg/kg WX-035, following the procedure described in Example 5.6. At the end of the study, the mice were sacrificed and major organs were harvested for H&E staining.

[2] = Pharmacokinetics in male ICR mice; conditions: mouse, plasma, 5 mg/kg
Protocol: The tail vein was used for i.v. injections. […] Following injections, blood samples were obtained via the retro-orbital vein at 5 min, 1, 2, 4, 6, 8, 12, and 24 hours postdose. Plasma was obtained from the blood samples following mixing with sodium heparin and centrifugation.
LC analysis was done using an Agilent 100 HPLC. MS analysis was done using an AB Sciex API 4000. Calibration standards were prepared by serial dilution.
The maximum observed concentration (Cmax), terminal half-life (T1/2), total body clearance (CL), volume of distribution (Vz), area under the curve from the time of dosing to the last measurable concentration (AUC0-t), area under the curve from the time of dosing extrapolated to infinity (AUC0-inf), and bioavailability were calculated using noncompartmental analysis modules in the FDA-certified pharmacokinetic program WinNonlin Professional v5.2 (Pharsight).
Briefly, the mice were administered 1 mg/kg or 5 mg/kg intravenously, or 5 mg/kg intraperitoneally. Blood samples were collected at 15 min, 1, 2, 3, 6, 8, 12, and 24 hours post administration.

CT26 cells = experiment: CT26 syngeneic mouse model of colon cancer (Balb/c); format: in vivo, mice
Protocol: The syngeneic mouse model of colon cancer using CT26 was then assessed. Male Balb/c mice were injected subcutaneously in the right flank with 5×10^4 CT26 cells each at approximately 5 weeks of age. […] Eight mice were included in each treatment group.
The whole blood was taken from each mouse. Lymphocytes were purified from the blood samples by Ficoll, and the cells were stained with fluorescent anti-CD4 antibody. Data were measured by flow cytometry.
As described above, the whole blood was taken from each mouse. Lymphocytes were purified from blood by Ficoll, and the cells were stained with fluorescent anti-CD8 antibody. Data were measured by flow cytometry.
To further assess whether WX-024 is capable of modulating a tumor microenvironment, tumor and blood samples were collected in anticoagulation tubes at the end of the study. Single cells separation was performed and then cells were stained for FACS analysis. For cell surface staining, CD45-PerCP-Cy5, CD4-FITC, CD8-PE-Cy7, and CD25-PE were used. For intranuclear staining, cells were permeabilized overnight and then stained with Foxp3-APC for 60 minutes.
The in vivo efficacy of WX-035 in treating a cancer was assessed in a syngeneic mouse model, following the procedures described in Example 5.3. Trametinib, a known MEK inhibitor, was used as a comparison. Briefly, balb/c mice were inoculated with CT26 and treatment started when tumor volume reached to about 100 mm^3. The mice were then divided into three groups and began administered with a vehicle, 40 mg/kg WX-035, or 1 mg/kg trametinib for 7 consecutive days.
At the end of the study described in Example 9.2, a tumor sample from each mouse was collected to assess the effect of WX-035 in modulating T cell activation. The FACS analysis of each tumor sample was performed following the procedure described in Example 5. A shown in FIG. 36A, treatment with WX-035 reduced the total amount of CD45^+ cells. […] Likewise, Foxp3^+ CD25^+ T cells were reduced by WX-035 treatment (FIG. 36C). […] Furthermore, by increasing the ratio of cytotoxic T cells over regulatory T cells, WX-035 may induce a microenvironment that favors an immune reaction beneficial for tumor treatment. Of note, the samples collected from this experiment were also assessed for LGR5 expression.

FIG. 33B = experiment: FIG. 33B
Protocol: Table printed on a drawing sheet, FIG. 33B
The patent's description of the figure: FIG. 33A and FIG. 33B show PK data for WX-035 administered to male ICR mice (an outbred strain). The mice were treated with either 1 mg/kg, or 5 mg/kg WX-035 intravenously or 5 mg/kg WX-035 intraperitoneally.
First reader's note: Plasma PK parameters by route and dose; according to the description the animals are male ICR mice.

FIG. 34B = experiment: FIG. 34B
Protocol: Table printed on a drawing sheet, FIG. 34B
The patent's description of the figure: FIG. 34A and FIG. 34B show PK data for WX-035 administered to female balb/c mice (n=3). The mice were either intravenously or intraperitoneally administered with 30 mg/kg WX-035. Blood samples from each mouse were collected at 5 min, 15 min, 30 min, 1, 2, 4, 6, 8, 12, 24, 36, 48, and 72 hours post administration.
First reader's note: Substance, dose (30 mg/kg IV and IP) and species (female Balb/c nude mice, N=3) are printed in the title of FIG. 34A on the same sheet; the label F is printed once, between the mIL/min/kg row and the % row, so the mIL/min/kg row may in fact belong to CL.

CT26.WT cells = format: cell-based
Protocol: One of the stabilized polypeptides generated in Example 10 was tested in a cell viability assay and compared against WX-035. WX-037 was selected for this comparison study. The cell viability assay was performed with CT26.WT cells (ATCC), following the procedures described in Example 2. Briefly, 4000 cells per well of each plate were seeded with 50 μL opti-MEM medium. Each polypeptide, WX-035 or WX-037, was diluted with 2% FBS containing opti-MEM medium using 1 μL of 200× concentrated polypeptide in 99 μL of the medium. Each stock solution was diluted for testing a wide range of concentrations. 50 μL of 2× concentrated polypeptide was added to each well of the plate. Three days after the polypeptide addition, the viability of cells was measured using CellTiterGlo assay, according to the manufacturer's protocol.

[3] = Pharmacokinetics in female balb/c mice; format: in vivo; conditions: mouse, plasma, 30 mg/kg intravenous or intraperitoneal
Protocol: The peptide solution was prepared at the fixed concentration of 0.5 mg/ml, and then suitable amounts were administered according to the dose. The same mixed solvent was used as a vehicle treatment. Blood samples (300 IA) were collected periodically from the retro-orbital vein at 0.25, 1, 2, 4, 6, 7, 12, and 24-hours post-dose (and 36 and 48 hours post-dose for intramuscular, subcutaneous, and intraperitoneal routes), followed by plasma separation for pending bioanalysis by LC-MS/MS. Standard PK parameters were calculated by non-compartmental analysis modules in WinNonlin Professional (v5.2, Pharsight, FDA-certified).
Two different administration routes, intravenous or intraperitoneal, were compared using 30 mg/kg WX-035. […] As observed with male ICR mice, the half-life of WX-035 in this experiment was more than 9 hours.

Colo320DM cells = experiment: cells; conditions: Colo320DM cells
Protocol: Colo320DM cells were selected for this assay as the proliferation of this particular cell line is dependent on BCL9 and β-catenin. ICG001, a known Wnt/β-catenin small molecule inhibitor, was used as a positive control. The cell viability at each treatment condition was analyzed using CellTiterGlo luminescent cell viability assay (Promega) according to the manufacturer's protocols.
Following the procedure described in Example 2, the ability of WX-035 to inhibit cell growth was tested in a cell viability assay using Colo320DM cells.

[4] = Pharmacokinetics in female balb/c nude mice; format: in vivo; conditions: mouse, plasma, sc, 10 mg/kg subcutaneously
Protocol: The pharmacokinetic profiles of the four additional polypeptides constructed in Example 10 were assessed following the procedures described in Example 5.1. WX-029 and WX-036 were administered 1 mg/kg intravenously to female balb/c nude mice. Blood samples were collected at 15 min, 1, 2, and 4 hours post administration. FIG. 39A and FIG. 39B summarize the plasma concentration and the pharmacokinetic profiles calculated for WX-029. FIG. 40A and FIG. 40B summarize the plasma concentration and the pharmacokinetic profiles calculated for WX-036.
Similarly, WX-039 and WX-040 were also tested in female balb/c nude mice and assessed for their pharmacokinetic profiles. WX-039 was administered at 5 mg/kg intravenously, 5 mg/kg intraperitoneally, or 10 mg/kg subcutaneously. WX-040 was administered at 30 mg/kg intravenously or 30 mg/kg intraperitoneally. Blood samples were collected at 15 min, 1, 2, 4, 8, 24, 36, 48, and 72 hours post administration. FIG. 41A and FIG. 41B summarize the plasma concentration and the pharmacokinetic profiles calculated for WX-039. FIG. 42A and FIG. 42B summarize the plasma concentration and the pharmacokinetic profiles calculated for WX-040.

B16F10 cells = experiment: B16F10 syngeneic model in C57BL/6 mice; format: in vivo; conditions: 12 days
Protocol: C57BL/6 mice were inoculated with B16F10 cells. Female C57BL/6 mice aged 4-5 weeks were inoculated with B16F10 cells (2×10^5 cells in 0.05 ml per mouse) in the right flank. When the average tumor size of the mice reached 100 mm^3, the mice were divided into two groups (N=6). […] The treatment was intraperitoneally administered daily for 14 consecutive days.
The treatment was intraperitoneally administered daily for 12 consecutive days. At the end of the treatment, the mice were sacrificed and tumor and blood samples were collected in anticoagulation tubes. Single cell separation was performed for each sample and then stained for FACS analysis. For cell surface staining, CD45-PerCP-Cy5, CD4-FITC, CD8-PE-Cy7, and CD25-PE were used. The tumor samples were then stained with either an anti-CD4 antibody or an anti-CD8 antibody to assess the presence of T cells in the tumor samples. The tumor samples were also stained with an anti-CD194 antibody and anti-CD196 antibody to assess the presence of T helper 17 cells in the tumor samples.
The process of constructing WX-039 is described in Example 10. C57BL/6 mice were inoculated with B16F10 cells. […] The treatment was intraperitoneally administered daily for 12 consecutive days. At the end of the treatment, the mice were sacrificed and tumor and blood samples were collected in anticoagulation tubes. Tumor cells collected from the experiment were stained as described above and also with anti-CD205 antibody to assess whether WX compounds are capable of modulating dendritic cells.
The ability of WX-039 to suppress tumor growth was assessed in the animal model described in Example 5.4. Briefly, C57BL/6 mice were inoculated with B16 cells. Female C57BL/6 mice aged 5 weeks were inoculated with B16F10 cells (2×10^5 cells in 0.05 ml per mouse) in the right flank. When the average tumor size of the mice reached 100 mm^3, the mice were divided into two groups (N=3). The first group was administered 60 mg/kg WX-039 while the second group was treated with a vehicle. The treatment was intraperitoneally administered daily for 12 consecutive days.

[5] = 20 mg/kg WX-024 or 60 mg/kg WX-039 i.p. daily

SMILES: CC[C@H](C)[C@@H]1NC(=O)[C@@](C)(NC(=O)[C@H](CCCNC(=N)N)NC(=O)[C@H](CC(C)C)NC(=O)[C@]2(C)CCCC=CCCC[C@@](C)(NC(C)=O)C(=O)N[C@@H](CC(C)C)C(=O)N[C@@H](CCC(N)=O)C(=O)N2)CCCC=CCCC[C@@](C)(C(=O)N[C@@H](CC(C)C)C(=O)N[C@@H](Cc2ccc3ccccc3c2)C(=O)NCCC(=O)NCCC(N)=O)NC(=O)[C@H](CCCNC(=N)N)NC(=O)[C@H](CCC(N)=O)NC1=O [WX-035, Xaa1LQXaa2LRXaa3IQRXaa4L] (Ac-[R5]LQ[S5]LR[S5]IQR[S5]L[2Nal][βAla][βAla]-NH2; staple 1-4, 7-11)
H&E staining of major organs [1]: did not cause any significant abnormality to major organs
half-life [2]: > 4 h
Foxp3+ CD25+ T cells in tumor (CT26 cells; WX-035, 7 days): reduced
LGR5 expression in intestine samples (CT26 cells; WX-035, 7 days): reduced
total amount of CD4+ or CD8+ T cells in tumor (CT26 cells; WX-035, 7 days): reduced
total amount of CD45+ cells in tumor (CT26 cells; WX-035, 7 days): reduced
ratio between cytotoxic T cells (CD8+) and Foxp3+ regulatory T cells (CT26 cells; WX-035, 7 days, vs vehicle): increased
average tumor growth inhibition (CT26 cells; WX-035 i.p. for 7 consecutive days, day 7 / end of study): 88.44%
F | % (FIG. 33B): 72%
AUCINF | (FIG. 34B): 996.181 µg·h/mL and 997.708 µg·h/mL
AUClast | (FIG. 34B): 987.148 µg·h/mL and 996.029 µg·h/mL
CL | (FIG. 34B): 0.502 mL/min/kg
CMAX | (FIG. 34B): 102393 ng/mL
MRTINF | hr (FIG. 34B): 5.50 h
TERMINAL t1/2 | hr (FIG. 34B): 9.81 h and 7.03 h
TMAX | hr (FIG. 34B): 2.00 h
Vss | (FIG. 34B): 0.166 L/kg
IC50 (CT26.WT cells): 1860 nM
half-life [3]: > 9 h
effect on cell viability / cell growth (Colo320DM cells): improved IC50 value as compared to WX-024

half-life [4]: ~52 h
SMILES: CC[C@H](C)[C@@H]1NC(=O)[C@@](C)(NC(=O)[C@H](CCCNC(=N)N)NC(=O)[C@H](CC(C)C)NC(=O)[C@]2(C)CCCC=CCCC[C@@](C)(NC(=O)[C@H](CCCNC(=N)N)NC(C)=O)C(=O)N[C@@H](CC(C)C)C(=O)N[C@@H](CCC(N)=O)C(=O)N2)CCCC=CCCC[C@@](C)(C(=O)N[C@@H](CC(C)C)C(=O)N[C@@H](Cc2ccc3ccccc3c2)C(=O)NCCC(=O)NCCC(N)=O)NC(=O)[C@H](CCCNC(=N)N)NC(=O)[C@H](CCC(N)=O)NC1=O [WX-039, RXaa1LQXaa2LRXaa3IQRXaa4L] (Ac-R[R5]LQ[S5]LR[S5]IQR[S5]L[2Nal][βAla][βAla]-NH2; staple 2-5, 8-12)
T helper 17 cells in tumor (B16F10 cells; [5]): increased
dendritic cells (CD205+) in tumor (B16F10 cells; [5]): capable of suppressing dendritic cells present in tumor
body weight change (B16F10 cells; 60 mg/kg i.p. daily): no substantial body weight change
tumor growth compared to vehicle (B16F10 cells; 60 mg/kg i.p. daily): reduced tumor growth
